This note sets out measurements from patent publication US11078245B2, “Colon and pancreas cancer peptidomimetics” (PRECISION BIOLOGICS, INC., priority 2010, dated 2021).

One assay relates to NPC-1C antigen. As to the kind of experiment: 4-1-4C12-KLH competitive ELISA. It counts as binding. The method, then: (§1) An exemplary NPC-1 antigen peptidomimetic, 4-1-4C12 (SEQ ID NO: 5) was conjugated to KLH (Keyhole Limpit Hemocyannin) (“4-1-4-C12-KLH”). […] Further, 4-1-4C12-KLH blocks NPC-1 binding to NPC-1C antigen specifically in competitive ELISA. After confirming the function of 4-1-4C12-KLH, 4-1-4C12-KLH was injected into rabbits. The immunized serum after third injection was tested by binding ELISA to check the function of 4-1-4C12-KLH induced antibody. The plate was coated with 4-1-4C12 peptide or CFPAC1 sup, diluted serum was added to the washed and blocked the plate. Bound rabbit IgG was detected by donkey anti-rabbit IgG-HRP.
A general note: An ELISA detects its analyte on a solid surface through an enzyme-linked reagent.

The next assay has as its system 4-1-4C12 peptide. As to the kind of experiment: Rabbit immunization, serum binding ELISA. It counts as in vivo, rabbits. Conditions: rabbit serum after third injection. How it is done:
as §1

The next assay deals with T1, CFPAC1 sup (Homo sapiens, UniProt P98088).
T1 construct: endogenous in cells; host or cells: CFPAC-1 (human pancreatic tumor cell line); cells or serum-free conditioned medium
Put plainly: Rabbit immunization, serum binding ELISA. It counts as in vivo, rabbits. The note with it: rabbit serum after third injection. How it is done: as §1

In assay [1] the test system is NEO-101 antibody. As to the kind of experiment: 4-1-4-C12-KLH binding ELISA.
Assay [2] concerns CFPAC1 culture supernatant. As to the kind of experiment: Peptide competition ELISA on CFPAC1 culture supernatant-coated plates. It counts as binding, human. The source says:
FIG. 15A is a bar graph showing the percent blocking of NEO-101 by peptides (identified by biopanning an M13 phage library) on CFPAC1 culture supernatant-coated plates. FIG. 15B is a bar graph of OD values showing blocking of NEO-101 by peptides (identified by biopanning an M13 phage library) on CFPAC1 culture supernatant-coated plates.
Next, the inhibition of NEO-101 beads binding to CFAC1 Cells (rosetted cells) by peptides 4-1-4C12 and 4-1-4C12-R2 was investigated, as shown in FIG. 14A. FIG. 14B was the results from positive control with 4B6 in competitive beads assay. […] Therefore, the peptide 4-1-4-C12 is a peptidomimetic of the NPC-1 epitope and may be used to elicit a NPC-1 specific antibodies.

The subject of the next assay is Colon Ag. Put plainly: ELISA of NEO-101 binding inhibition by peptides against Colon Ag. Also on record: species or system human. How it is done: An ELISA analysis of the NEO-101 binding inhibition by peptide 4-1-3-C9 and 4-1-4-C12 against Colon Ag was conducted. Aliquots of 100 μl/well Colon Ag (3 μg/ml in CBS buffer) in 96 well plate were incubated at 4° C. overnight, and the wells washed three times with TBST (0.05% Tween). The wells were blocked with 200 μl of 1% milk at RT for 1 hour. A pre-mix of NEO-101-biotin and test peptide was added at 100 μl/well and incubated at RT of 1 hour, followed by three washes with TBST. Streptavidin-HRP (100 μl of 1:2000 dilution) was added and the reaction incubated at RT for 1 hour, and the wells washed three time. TMB was added, and the wells were read at 450 nm. The control was NEO-101-biotin.

The subject of the next assay is CFPAC1 cells. Put plainly: NEO-101-coupled Dynal beads rosette assay. The format is cell-based, human. Conditions: for Positive rosette cells (%): Dynal beads coupled with NEO-101, premixed with M13 clone. The method, then:
The M13 clones identified by the biopanning were also immunoassayed using magnetic beads. Aliquots of 5 μl M13 phage (10^11/10 μl) were mixed with 10 μl NEO-101-coupled Dynal® beads at RT for 20 min on a rotator. CFPAC1 cells (30 μl of 10^6 cells/ml) were added and incubated at 4° C. for 30 min. Rosetted cells were counted (>8 beads/cell).

The subject of a further assay is NEO-101. As to the kind of experiment: Biotinylated peptide binding ELISA. Conditions: biotinylated peptide on NEO-101 coated plate. How it is done: To solve the poor binding of peptides to 96 well plate, peptides were biotinylated using EZ-link micro NHS Biotinylation kit (Pierce Cat #21955), and labeling efficiency checked by dot blot (50%). The biotinylated peptide binding was analyzed in ELISA by adding 100 μl/well of NEO-101 (1 μg/ml) in CBS buffer to 96 well plate and incubating at 4° C. overnight, followed by three washes with TBST (0.05% Tween). The solution was blocked with 200μ/of 1% milk in TBS at RT for 20 min. Aliquots of 100 μl peptide-biotin ([…]) in 0.1% milk-TBS were added, and incubated at RT of 2 hr, followed by three washes with TBST. Streptavidin-HRP (100 μl of 1:2000 diluted in 1:10 diluted blocking buffer) was added, and the wells incubated at RT for 1 hr, followed by three washed. TMB was then added, and the wells were read at 450 nm. Positive controls for NPC-1C binding used 4B6-biotin. The results are shown in FIG. 11, which indicates biotinylated peptides bind to NPC-1C coated plate.

Assay [3] deals with NEO-101 antibody. Put plainly: Immunofluorescence of 293T cells transfected with MUC5AC truncation constructs. The format is cell-based. Conditions: 2 μg/ml NEO-101 antibody. The method, then: Six truncation constructs were made representing C-terminal truncations of the full-length MUC5AC protein (SEQ ID NO: 36).
293T cells were cultured on FBS coated cover slips for 24 hours. Cells were transiently transfected with 2 μg of MUC5AC constructs of Table 8 with LIPOFECTAMINE®. Cells were grown for about 72 hours, fixed with about 4% PFA in PBS, washed with PBS, permeabilized with about 0.2% […] in PBS and washed with PBS. Cells were then blocked with about 1% BSA in PBS, and about 2 μg/ml NEO-101 antibody was added to sample wells and about 2 μg/ml of an Isotype control was added for 1 hour at room temp. Cells were washed with PBS and second anti human-FITC antibody (1:500) was added to all wells and to the second antibody control wells. Cells were washed and mounted on slides with DAPI hard mount. Cover slides were allowed to sit over night at about 4° C. Slides were visualized with a Nikon Eclipse Ti microscope with an Andor camera. At least 3 random fields were counted per transfection.

“Also recorded” adds a separate entry of the source. Ends that are not written are not given here.

On to “4-1-4-C12-KLH: 4-1-4C12 (SEQ ID NO: 5) conjugated to KLH (Keyhole Limpit Hemocyannin) (SLPDDWFRYINY; also: conjugated to KLH (keyhole limpet hemocyanin))”, for which the “blocking of NPC-1 binding to NPC-1C antigen” value with NPC-1C antigen is recorded as “blocks”. Also, the “immunized serum binding to 4-1-4C12 peptide” value with 4-1-4C12 peptide is “binds to 4-1-4C12; also recorded: dose dependent manner”. Further, in the assay with CFPAC1 sup, the “immunized serum binding to CFPAC1 supernatant” value is “bind to CFPAC1 human pancreatic cell line supernatant; also recorded: dose dependent manner”. In the assay on NEO-101 antibody [1], the “binding to NEO-101 antibody” value is on record as “binds to NEO-101 antibody”.

On to “SLPDDWFRYINYSLPDDWFRYINY (NPC-1 epitope peptidomimetic) [Peptide 4-1-4C12-R2]”, for which the “competition against bound CFPAC1 antigen with NEO-101 binding” value (“competition against bound CFPAC1 antigen” for short) in [2] is on record as “significant competition”.

Regarding “YSHSFPEDYFRYTNQKGGGS (NPC-1 epitope peptidomimetic) [Peptide 4-1-3-C9]”, the “Blocking of NEO-101 antibody binding to colon Ag” value (shortened to “Blocking … to colon Ag”) in the assay on Colon Ag is listed as “Yes”. Further, in the assay on CFPAC1 cells, the “blocking of NEO-101-coupled beads binding to CFPAC1 cells” value (“blocking … to CFPAC1 cells” for short) is “blocked” and the “Positive rosette cells (%)” value was 0%. Further, the “competition against bound CFPAC1 antigen” value in [2] is listed as “significant competition”. Besides, in the assay with NEO-101, the NEO-101 binding entry is given as “Yes”.

For “YSHSSLPDDWFRYINYGGGS (NPC-1 epitope peptidomimetic) [Peptide 4-1-4-C12]”, the “Blocking … to colon Ag” value in the assay on Colon Ag is given as “Yes”. In addition, in the assay on CFPAC1 cells, the “blocking … to CFPAC1 cells” value is “blocked” and the “Positive rosette cells (%)” value is recorded as 0%. Moreover, in assay [2], the “competition against bound CFPAC1 antigen” value is “higher inhibition in low concentration comparing with 4-1-3C9”. Besides, the NEO-101 binding entry in the assay with NEO-101 is given as “Yes”.

For the molecule “YSHSVHAIEDNWSPRGGGGS (NPC-1 epitope peptidomimetic) [Peptide 4-1-3-C11, reference compound]”, the “Blocking … to colon Ag” value in the assay with Colon Ag is “No”. Besides, the “Positive rosette cells (%)” value in the assay with CFPAC1 cells turned out to be 38%. Further, the NEO-101 binding entry with NEO-101 was “No”.

With “YSHSWHTLPEKSLDENGGGS (NPC-1 epitope peptidomimetic) [Peptide 4-1-2-C5]”, in the assay on CFPAC1 cells, the “blocking … to CFPAC1 cells” value is “blocked” and the “Positive rosette cells (%)” value came to 0%.

With “YSHSWHTLPESGEVTSGGGS (NPC-1 epitope peptidomimetic) [Peptide 4-1-3-C8]”, the “Blocking … to colon Ag” value in the assay with Colon Ag is recorded as “No”. Also, in the assay on CFPAC1 cells, the “blocking … to CFPAC1 cells” value was “blocked” and the “Positive rosette cells (%)” value turned out to be 0%. Moreover, in the assay on NEO-101, the NEO-101 binding entry is listed as “Yes”.

B1: 1-187 (protein)
chain: ATMSVGRRKLALLWALALALACTTTHSQPVTRDCHLRCTWTKWFDVDFPSPGPHGGDKETYNNIIRSGEKICRRPEEITRLQCRAESHPEVSIEHLGQVVQCSREEGLVCRNQDQQGPFKMCLNYEVRVLCCETPKGCPVTSTPVTAPSTPSGRATSPTQSTSSWQKSRTTTLVTTSTTSTPQTSTT
modifications: MUC5AC truncation construct (187)
Turning to B1, the “Binds NPC-1?” value with NEO-101 antibody [3] is “Yes”.

B2: 1-136 (protein)
chain: ATMSVGRRKLALLWALALALACTTTHSQPVTRDCHLRCTWTKWFDVDFPSPGPHGGDKETYNNIIRSGEKICRRPEEITRLQCRAESHPEVSIEHLGQVVQCSREEGLVCRNQDQQGPFKMCLNYEVRVLCCETPK
modifications: MUC5AC truncation construct (136)
As to B2, the “Binds NPC-1?” value with NEO-101 antibody [3] is “No”.

B3: 1-151 (protein)
chain: ATMSVGRRKLALLWALALALACTTTHSQPVTRDCHLRCTWTKWFDVDFPSPGPHGGDKETYNNIIRSGEKICRRPEEITRLQCRAESHPEVSIEHLGQVVQCSREEGLVCRNQDQQGPFKMCLNYEVRVLCCETPKGCPVTSTPVTAPSTP
modifications: MUC5AC truncation construct (151)
With B3, in the assay on NEO-101 antibody [3], the “Binds NPC-1?” value was “Yes”.

B4: 1-289 (protein)
chain: ATMSVGRRKLALLWALALALACTTTHSQPVTRDCHLRCTWTKWFDVDFPSPGPHGGDKETYNNIIRSGEKICRRPEEITRLQCRAESHPEVSIEHLGQVVQCSREEGLVCRNQDQQGPFKMCLNYEVRVLCCETPKGCPVTSTPVTAPSTPSGRATSPTQSTSSWQKSRTTTLVTTSTTSTPQTSTTSAPTTSTTSAPTTSTTSAPTTSTTSTPQTSISSAPTSSTTSAPTSSTISARTTSIISAPTTSTTSSPTTSTTSATTTSTTSAPTSSTTSTPQTSKTSAATSS
modifications: MUC5AC truncation construct (289)
Turning to B4, in the assay on NEO-101 antibody [3], the “Binds NPC-1?” value is given as “Yes”.
